# Columns and labels:
# [1] = biological target: Tyrosine-protein kinase Lck (Homo sapiens, UniProt P06239)
# Angiopoietin-1 receptor [2] = biological target: T1, Angiopoietin-1 receptor (Homo sapiens, UniProt Q02763)
# Description: Inhibition of TIE2 by HTRF assay
# [3] = Half life in Sprague-Dawley rat at 2 mg/kg, iv; assay type: ADME, organism-based; design: dose 2 mg/kg, route intravenous; settings: in vivo
# [4] = Clearance in Sprague-Dawley rat at 2 mg/kg, iv; assay type: ADME, organism-based; design: dose 2 mg/kg, route intravenous; settings: in vivo
# [5] = AUC (0-infinity) in Sprague-Dawley rat at 5 mg/kg, po; assay type: ADME, organism-based; design: time infinity, dose 5 mg/kg, route oral; settings: plasma
# [6] = Volume of distribution in Sprague-Dawley rat at 2 mg/kg, iv; assay type: ADME, organism-based; design: dose 2 mg/kg, route intravenous; settings: in vivo, read-out: Vss
# [7] = Oral bioavailability in Sprague-Dawley rat at 5 mg/kg, po; assay type: ADME, organism-based; settings: in vivo
# [8] = biological target: Vascular endothelial growth factor receptor 2 (Homo sapiens, UniProt P35968)
# Angiopoietin-1 receptor [9] = biological target: T1, Angiopoietin-1 receptor; test: Inhibition of Ang1-stimulated TIE2 phosphorylation in EA.hy 926 endothelial cell line; assay type: functional, cell-based
# [10] = biological target: Tyrosine-protein kinase Fgr (Homo sapiens, UniProt P09769); test: Inhibition of FGR
# [11] = biological target: Hepatocyte growth factor receptor (Homo sapiens, UniProt P08581); test: Inhibition of c-Met
# [12] = biological target: High affinity nerve growth factor receptor (Homo sapiens, UniProt P04629); test: Inhibition of TrkA
# [13] = biological target: Angiopoietin-1 receptor (Mus musculus) (UniProt Q02858); test: Inhibition of angiopoietin-1-induced TIE2 phosphorylation in CD1 NU/NU mouse; assay type: functional
# [14] = biological target: T2, Tyrosine-protein kinase ITK/TSK (Homo sapiens, UniProt Q08881); test: Inhibition of ITK
# T2 sequence (Q08881 whole entry): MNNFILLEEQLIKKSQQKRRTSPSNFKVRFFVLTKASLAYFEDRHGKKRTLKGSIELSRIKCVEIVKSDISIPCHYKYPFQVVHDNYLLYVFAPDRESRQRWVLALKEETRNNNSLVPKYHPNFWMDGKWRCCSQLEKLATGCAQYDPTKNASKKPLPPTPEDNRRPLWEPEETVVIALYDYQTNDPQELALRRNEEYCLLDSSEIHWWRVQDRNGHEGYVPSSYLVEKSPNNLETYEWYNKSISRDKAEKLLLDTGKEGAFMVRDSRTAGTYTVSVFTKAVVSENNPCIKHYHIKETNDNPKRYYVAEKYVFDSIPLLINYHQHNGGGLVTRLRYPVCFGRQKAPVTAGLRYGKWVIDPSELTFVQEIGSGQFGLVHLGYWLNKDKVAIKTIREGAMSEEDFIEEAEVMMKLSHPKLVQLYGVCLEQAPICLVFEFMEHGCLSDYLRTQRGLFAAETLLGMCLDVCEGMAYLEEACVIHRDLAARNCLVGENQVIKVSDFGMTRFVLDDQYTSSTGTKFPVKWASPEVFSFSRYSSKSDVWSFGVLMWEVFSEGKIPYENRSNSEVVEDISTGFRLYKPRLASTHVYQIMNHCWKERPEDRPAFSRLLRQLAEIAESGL
# [15] = biological target: Mitogen-activated protein kinase 14 (Homo sapiens, UniProt Q16539); test: Inhibition of p38alpha
# [16] = biological target: Tyrosine-protein kinase Lyn (Homo sapiens, UniProt P07948); test: Inhibition of Lyn
# [17] = Plasma protein binding in CD1 NU/NU mouse; assay type: ADME, cell-free; settings: read-out: PPB (converted)
# [18] = biological target: Tyrosine-protein kinase JAK2 (Homo sapiens, UniProt O60674); test: Inhibition of Jak2
# [19] = biological target: Tyrosine-protein kinase JAK1 (Homo sapiens, UniProt P23458); test: Inhibition of Jak1
# Mus musculus = test: Plasma concentration in CD1 NU/NU mouse at 10 mg/kg; assay type: ADME, organism-based; design: dose 10 mg/kg; settings: in vivo
# [20] = biological target: Tyrosine-protein kinase CSK (Homo sapiens, UniProt P41240); test: Inhibition of CSK
# [21] = biological target: T3, Tyrosine-protein kinase JAK3 (Homo sapiens, UniProt P52333); test: Inhibition of Jak3
# T3 sequence (P52333 whole entry): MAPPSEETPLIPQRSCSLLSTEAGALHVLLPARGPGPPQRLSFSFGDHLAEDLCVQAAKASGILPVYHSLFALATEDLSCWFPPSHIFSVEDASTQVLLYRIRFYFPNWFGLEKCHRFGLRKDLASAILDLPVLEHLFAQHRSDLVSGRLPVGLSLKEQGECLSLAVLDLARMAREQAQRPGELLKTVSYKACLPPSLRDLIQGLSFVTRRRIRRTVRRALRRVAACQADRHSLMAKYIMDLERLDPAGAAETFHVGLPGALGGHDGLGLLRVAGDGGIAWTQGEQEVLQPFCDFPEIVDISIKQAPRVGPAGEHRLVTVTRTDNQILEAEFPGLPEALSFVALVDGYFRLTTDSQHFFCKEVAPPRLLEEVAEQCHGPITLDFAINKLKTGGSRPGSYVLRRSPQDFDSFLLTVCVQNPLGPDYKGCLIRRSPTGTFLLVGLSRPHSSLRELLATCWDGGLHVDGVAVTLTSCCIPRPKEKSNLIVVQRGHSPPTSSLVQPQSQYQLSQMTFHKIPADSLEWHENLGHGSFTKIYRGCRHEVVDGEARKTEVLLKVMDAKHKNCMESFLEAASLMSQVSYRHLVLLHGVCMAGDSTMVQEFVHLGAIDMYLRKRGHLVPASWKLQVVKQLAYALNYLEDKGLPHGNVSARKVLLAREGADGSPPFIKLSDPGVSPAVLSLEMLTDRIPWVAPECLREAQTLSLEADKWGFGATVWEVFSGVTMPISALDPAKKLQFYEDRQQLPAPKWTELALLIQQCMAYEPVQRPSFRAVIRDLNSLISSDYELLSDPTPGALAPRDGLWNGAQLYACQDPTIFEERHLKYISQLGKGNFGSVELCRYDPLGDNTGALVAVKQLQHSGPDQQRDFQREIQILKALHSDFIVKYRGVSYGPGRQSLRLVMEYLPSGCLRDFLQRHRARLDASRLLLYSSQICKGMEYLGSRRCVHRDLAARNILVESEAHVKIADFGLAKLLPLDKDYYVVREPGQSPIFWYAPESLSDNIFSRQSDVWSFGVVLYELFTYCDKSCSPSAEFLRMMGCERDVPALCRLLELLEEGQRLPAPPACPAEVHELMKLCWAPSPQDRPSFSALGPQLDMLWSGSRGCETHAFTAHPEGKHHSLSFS
# [22] = biological target: Tyrosine-protein kinase Fes/Fps (Homo sapiens, UniProt P07332); test: Inhibition of Fes
# [23] = biological target: Angiopoietin-1 receptor (Mus musculus) (UniProt Q02858); test: Inhibition of angiopoietin-1-induced TIE2 phosphorylation in CD1 NU/NU mouse at 10 mg/kg; assay type: functional, organism-based; design: dose 10 mg/kg
# Insulin receptor = Insulin receptor (Homo sapiens, UniProt P06213); test: Inhibition of INSR
# [24] = biological target: Mast/stem cell growth factor receptor Kit (Homo sapiens, UniProt P10721); test: Inhibition of c-Kit
# Ephrin type-B receptor 4 = biological target: T4, Ephrin type-B receptor 4 (Homo sapiens, UniProt P54760); test: Inhibition of EpHB4
# T4 sequence (P54760 whole entry): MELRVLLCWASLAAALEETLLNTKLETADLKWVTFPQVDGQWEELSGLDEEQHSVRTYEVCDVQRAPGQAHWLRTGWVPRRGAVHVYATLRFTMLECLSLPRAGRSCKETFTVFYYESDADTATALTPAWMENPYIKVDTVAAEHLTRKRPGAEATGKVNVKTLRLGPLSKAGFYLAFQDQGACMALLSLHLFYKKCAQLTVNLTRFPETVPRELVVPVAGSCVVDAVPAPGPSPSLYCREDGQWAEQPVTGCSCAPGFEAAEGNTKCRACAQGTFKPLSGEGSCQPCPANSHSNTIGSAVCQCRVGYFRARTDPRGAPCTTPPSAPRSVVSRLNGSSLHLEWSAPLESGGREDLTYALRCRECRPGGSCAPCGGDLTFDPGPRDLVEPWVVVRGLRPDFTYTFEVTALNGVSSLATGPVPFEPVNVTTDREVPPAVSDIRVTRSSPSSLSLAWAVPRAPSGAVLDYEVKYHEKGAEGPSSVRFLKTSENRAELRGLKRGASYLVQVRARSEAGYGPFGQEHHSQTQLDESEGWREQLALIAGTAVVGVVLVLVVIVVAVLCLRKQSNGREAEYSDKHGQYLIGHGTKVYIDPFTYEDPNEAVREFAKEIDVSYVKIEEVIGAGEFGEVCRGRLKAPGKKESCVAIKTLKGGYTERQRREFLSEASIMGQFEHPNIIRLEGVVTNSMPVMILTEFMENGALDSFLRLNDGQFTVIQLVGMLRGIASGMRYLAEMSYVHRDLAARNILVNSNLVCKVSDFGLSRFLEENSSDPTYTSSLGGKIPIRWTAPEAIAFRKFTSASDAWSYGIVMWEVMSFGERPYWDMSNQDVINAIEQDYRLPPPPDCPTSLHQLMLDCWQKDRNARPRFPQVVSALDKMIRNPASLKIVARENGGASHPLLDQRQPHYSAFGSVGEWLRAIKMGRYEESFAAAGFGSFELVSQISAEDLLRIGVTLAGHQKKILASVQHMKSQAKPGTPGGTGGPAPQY
# Sequence of Vascular endothelial growth factor receptor 2 (P35968 whole entry): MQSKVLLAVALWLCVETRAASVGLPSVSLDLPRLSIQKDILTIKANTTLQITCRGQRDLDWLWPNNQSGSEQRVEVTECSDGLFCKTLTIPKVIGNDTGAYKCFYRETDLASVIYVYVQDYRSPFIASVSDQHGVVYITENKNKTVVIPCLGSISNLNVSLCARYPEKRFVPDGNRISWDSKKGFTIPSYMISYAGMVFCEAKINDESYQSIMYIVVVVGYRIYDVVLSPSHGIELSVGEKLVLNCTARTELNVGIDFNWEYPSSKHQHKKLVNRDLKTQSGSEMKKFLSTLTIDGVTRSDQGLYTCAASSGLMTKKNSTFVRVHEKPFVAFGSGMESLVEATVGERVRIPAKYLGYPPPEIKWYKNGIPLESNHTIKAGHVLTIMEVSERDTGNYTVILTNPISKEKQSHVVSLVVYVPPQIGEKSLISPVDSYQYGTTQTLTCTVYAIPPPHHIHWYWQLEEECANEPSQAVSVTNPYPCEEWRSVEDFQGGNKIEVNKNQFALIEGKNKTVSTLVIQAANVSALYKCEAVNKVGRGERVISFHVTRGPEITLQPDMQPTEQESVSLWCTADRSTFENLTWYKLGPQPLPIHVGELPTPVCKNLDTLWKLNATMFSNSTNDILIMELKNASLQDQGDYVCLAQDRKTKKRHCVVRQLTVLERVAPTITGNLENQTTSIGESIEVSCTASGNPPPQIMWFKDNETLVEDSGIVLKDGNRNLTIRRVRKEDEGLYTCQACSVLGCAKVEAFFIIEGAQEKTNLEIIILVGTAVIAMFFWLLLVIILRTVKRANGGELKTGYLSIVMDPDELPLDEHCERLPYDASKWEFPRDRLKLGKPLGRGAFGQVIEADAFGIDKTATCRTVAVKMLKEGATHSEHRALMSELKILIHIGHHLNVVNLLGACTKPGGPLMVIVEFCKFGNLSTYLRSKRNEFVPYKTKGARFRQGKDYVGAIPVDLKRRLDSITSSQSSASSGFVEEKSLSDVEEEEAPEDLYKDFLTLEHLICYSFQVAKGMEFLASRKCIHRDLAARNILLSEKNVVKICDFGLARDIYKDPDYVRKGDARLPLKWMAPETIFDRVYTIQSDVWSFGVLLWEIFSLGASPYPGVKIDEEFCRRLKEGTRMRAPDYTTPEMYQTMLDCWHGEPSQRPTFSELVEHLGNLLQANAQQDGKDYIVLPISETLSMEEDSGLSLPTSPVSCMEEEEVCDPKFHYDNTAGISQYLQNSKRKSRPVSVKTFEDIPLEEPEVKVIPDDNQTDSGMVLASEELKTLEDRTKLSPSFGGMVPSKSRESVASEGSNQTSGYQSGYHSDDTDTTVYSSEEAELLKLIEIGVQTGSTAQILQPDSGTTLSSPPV
# T1 sequence (Q02763 whole entry): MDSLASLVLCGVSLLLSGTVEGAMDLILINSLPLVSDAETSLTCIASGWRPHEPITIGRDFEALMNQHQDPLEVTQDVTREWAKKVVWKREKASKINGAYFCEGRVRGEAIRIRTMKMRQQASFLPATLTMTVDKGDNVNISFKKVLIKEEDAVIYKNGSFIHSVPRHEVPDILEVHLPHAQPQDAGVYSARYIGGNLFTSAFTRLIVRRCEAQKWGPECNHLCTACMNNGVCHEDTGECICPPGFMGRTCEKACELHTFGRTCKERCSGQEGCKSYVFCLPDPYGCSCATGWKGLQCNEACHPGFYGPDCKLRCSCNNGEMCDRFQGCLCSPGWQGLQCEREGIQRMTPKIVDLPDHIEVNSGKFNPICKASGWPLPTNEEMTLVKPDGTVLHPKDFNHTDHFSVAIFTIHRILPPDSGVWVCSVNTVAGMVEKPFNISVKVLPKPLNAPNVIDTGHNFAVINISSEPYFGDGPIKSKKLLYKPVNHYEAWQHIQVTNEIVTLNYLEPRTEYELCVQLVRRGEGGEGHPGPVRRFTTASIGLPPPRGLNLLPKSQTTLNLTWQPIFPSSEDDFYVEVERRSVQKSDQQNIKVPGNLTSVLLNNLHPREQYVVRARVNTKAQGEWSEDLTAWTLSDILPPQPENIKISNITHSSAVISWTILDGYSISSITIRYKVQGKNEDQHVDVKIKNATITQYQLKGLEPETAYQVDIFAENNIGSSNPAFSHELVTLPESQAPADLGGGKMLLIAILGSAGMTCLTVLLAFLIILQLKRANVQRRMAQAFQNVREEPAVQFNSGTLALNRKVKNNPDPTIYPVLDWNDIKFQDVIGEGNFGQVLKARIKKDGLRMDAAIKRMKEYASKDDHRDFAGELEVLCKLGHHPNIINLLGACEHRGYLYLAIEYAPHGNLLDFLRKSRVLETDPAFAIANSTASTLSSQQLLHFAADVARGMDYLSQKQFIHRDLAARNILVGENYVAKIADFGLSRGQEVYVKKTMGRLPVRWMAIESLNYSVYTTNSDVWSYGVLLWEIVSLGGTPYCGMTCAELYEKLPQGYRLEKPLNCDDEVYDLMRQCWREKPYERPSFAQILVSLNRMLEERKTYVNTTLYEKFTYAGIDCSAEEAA
# Sequence of Tyrosine-protein kinase Lck (P06239 whole entry): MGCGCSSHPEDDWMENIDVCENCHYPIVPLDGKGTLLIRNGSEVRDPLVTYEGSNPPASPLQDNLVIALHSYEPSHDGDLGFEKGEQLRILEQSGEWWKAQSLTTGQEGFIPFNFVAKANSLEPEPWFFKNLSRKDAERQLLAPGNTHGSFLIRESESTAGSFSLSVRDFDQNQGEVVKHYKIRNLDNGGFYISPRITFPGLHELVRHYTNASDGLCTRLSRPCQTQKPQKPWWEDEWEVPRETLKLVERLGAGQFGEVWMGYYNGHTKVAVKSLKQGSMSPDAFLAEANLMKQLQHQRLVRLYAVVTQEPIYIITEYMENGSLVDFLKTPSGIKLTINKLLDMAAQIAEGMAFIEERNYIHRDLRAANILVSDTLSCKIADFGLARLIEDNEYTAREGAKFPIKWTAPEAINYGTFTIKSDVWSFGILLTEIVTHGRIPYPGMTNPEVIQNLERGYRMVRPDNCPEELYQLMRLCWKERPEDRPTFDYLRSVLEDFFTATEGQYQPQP
# Sequence of Angiopoietin-1 receptor (Mus musculus) (Q02858 whole entry): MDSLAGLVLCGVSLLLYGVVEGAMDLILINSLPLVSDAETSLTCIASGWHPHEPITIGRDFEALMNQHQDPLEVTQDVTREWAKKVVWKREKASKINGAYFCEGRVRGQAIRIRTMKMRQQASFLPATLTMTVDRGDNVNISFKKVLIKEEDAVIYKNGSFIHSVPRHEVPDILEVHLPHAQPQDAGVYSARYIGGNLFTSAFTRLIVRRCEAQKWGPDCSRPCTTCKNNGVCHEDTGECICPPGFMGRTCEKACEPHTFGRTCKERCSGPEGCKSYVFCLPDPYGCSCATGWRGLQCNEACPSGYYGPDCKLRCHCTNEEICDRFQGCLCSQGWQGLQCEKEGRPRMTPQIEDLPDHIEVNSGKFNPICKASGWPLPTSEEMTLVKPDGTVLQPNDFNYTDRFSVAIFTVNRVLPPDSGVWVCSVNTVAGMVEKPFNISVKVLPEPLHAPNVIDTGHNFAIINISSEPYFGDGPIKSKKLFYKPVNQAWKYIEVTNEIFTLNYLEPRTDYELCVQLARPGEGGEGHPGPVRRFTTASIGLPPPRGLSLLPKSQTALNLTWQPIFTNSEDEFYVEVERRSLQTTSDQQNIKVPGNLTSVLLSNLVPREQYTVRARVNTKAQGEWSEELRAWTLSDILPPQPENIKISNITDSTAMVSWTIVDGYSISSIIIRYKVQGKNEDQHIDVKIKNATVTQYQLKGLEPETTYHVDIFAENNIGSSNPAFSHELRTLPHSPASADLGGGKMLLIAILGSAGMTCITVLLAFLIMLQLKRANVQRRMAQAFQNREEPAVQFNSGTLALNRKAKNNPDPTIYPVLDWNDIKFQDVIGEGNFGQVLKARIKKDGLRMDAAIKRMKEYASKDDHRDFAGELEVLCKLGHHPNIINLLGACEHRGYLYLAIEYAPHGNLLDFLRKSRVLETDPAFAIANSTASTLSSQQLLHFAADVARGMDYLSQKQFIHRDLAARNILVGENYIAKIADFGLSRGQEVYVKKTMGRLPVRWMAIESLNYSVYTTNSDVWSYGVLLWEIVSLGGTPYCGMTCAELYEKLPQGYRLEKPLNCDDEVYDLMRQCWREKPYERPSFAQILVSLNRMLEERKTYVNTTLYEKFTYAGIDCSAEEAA
# Sequence of Mitogen-activated protein kinase 14 (Q16539 whole entry): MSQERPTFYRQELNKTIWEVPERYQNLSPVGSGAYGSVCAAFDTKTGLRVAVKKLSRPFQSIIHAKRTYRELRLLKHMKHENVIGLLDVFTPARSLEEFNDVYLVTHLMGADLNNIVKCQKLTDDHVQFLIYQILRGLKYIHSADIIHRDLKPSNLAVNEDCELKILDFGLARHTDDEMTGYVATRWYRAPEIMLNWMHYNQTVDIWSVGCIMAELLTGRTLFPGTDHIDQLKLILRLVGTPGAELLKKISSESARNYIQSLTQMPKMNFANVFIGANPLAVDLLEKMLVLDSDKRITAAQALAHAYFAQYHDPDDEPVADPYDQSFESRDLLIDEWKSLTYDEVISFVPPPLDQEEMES
# Sequence of Tyrosine-protein kinase Fgr (P09769 whole entry): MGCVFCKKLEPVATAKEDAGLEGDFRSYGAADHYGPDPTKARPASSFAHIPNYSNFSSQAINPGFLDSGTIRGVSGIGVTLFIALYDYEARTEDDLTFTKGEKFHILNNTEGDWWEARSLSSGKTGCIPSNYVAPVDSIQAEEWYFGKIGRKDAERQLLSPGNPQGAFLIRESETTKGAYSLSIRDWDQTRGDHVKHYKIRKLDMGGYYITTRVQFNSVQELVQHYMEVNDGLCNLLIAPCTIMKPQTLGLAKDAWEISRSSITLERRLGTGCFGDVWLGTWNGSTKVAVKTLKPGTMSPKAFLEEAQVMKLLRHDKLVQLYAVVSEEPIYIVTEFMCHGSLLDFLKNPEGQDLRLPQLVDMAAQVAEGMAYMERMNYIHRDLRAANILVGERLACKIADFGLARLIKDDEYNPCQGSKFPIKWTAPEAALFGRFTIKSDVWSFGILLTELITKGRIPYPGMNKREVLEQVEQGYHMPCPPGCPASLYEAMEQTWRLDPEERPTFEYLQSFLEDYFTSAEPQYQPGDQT
smiles,measurement,setting,value
Cc1ccc(C(=O)Nc2cccc(C(F)(F)F)c2)cc1-c1ccc2nc(N)ncc2c1,IC50,[1],< 1 nM
same,IC50,Angiopoietin-1 receptor [2],1 nM
Nc1ncc(C#Cc2ccc(F)c(C(=O)Nc3cc(C(F)(F)F)ccc3N3CCC[C@H](N)C3)c2)cn1,half-life,[3],11.4 h
same,clearance,[4],5.33 mL/min/kg
same,AUC(0-inf),[5],9300 ng·h/mL
same,Vd,[6],4.6 L/kg
same,bioavailability,[7],51%
COc1ccc(C#Cc2cnc(N)nc2)cc1C(=O)Nc1cc(C(F)(F)F)ccc1N1CCCCC1,IC50,[1],> 25000 nM
CN[C@H]1CCCN(c2ccc(C(F)(F)F)cc2NC(=O)c2cc(C#Cc3cnc(N)nc3)ccc2F)C1,half-life,[3],10.6 h
same,clearance,[4],2.5 mL/min/kg
same,AUC(0-inf),[5],18600 ng·h/mL
same,Vd,[6],2.2 L/kg
same,bioavailability,[7],54%
Cc1ccc(C(=O)Nc2cccc(C(F)(F)F)c2)cc1C#Cc1cnc2[nH]cnc2c1,IC50,[8],< 1 nM
same,IC50,[1],< 1 nM
Cc1ccc(C(=O)Nc2cc(C(F)(F)F)ccc2N2CCCCC2)cc1C#Cc1cnc(N)nc1,IC50,[8],> 1000 nM
Nc1ncc(C#Cc2cccc(C(=O)Nc3cccc(C(F)(F)F)c3)c2)cn1,IC50,[8],< 1 nM
Nc1ncc(C#Cc2cccc(C(=O)Nc3cc(C(F)(F)F)ccc3N3CCCCC3)c2)cn1,IC50,[8],> 1000 nM
CN(C)[C@H]1CCCN(c2ccc(C(F)(F)F)cc2NC(=O)c2cc(C#Cc3cnc(N)nc3)ccc2F)C1,IC50,Angiopoietin-1 receptor [9],8 nM
same,IC50,[10],43 nM
same,IC50,[11],> 6700 nM
same,IC50,[12],18 nM
same,half-life,[3],7.9 h
same,Activity,[13],Dose-dependent effect
same,clearance,[4],40 mL/min/kg
same,AUC(0-inf),[5],800 ng·h/mL
same,IC50,[14],> 5000 nM
same,IC50,[15],> 8300 nM
same,IC50,[16],180 nM
same,IC50,Angiopoietin-1 receptor [2],5 nM
same,fraction unbound,[17],0.021
same,IC50,[18],550 nM
same,IC50,[19],1300 nM
same,concentration,Mus musculus,1660 nM
same,IC50,[20],1800 nM
same,IC50,[21],1700 nM
same,IC50,[22],910 nM
same,inhibition,[23],50%
same,IC50,Insulin receptor,2900 nM
same,IC50,[24],2800 nM
same,Vd,[6],11.8 L/kg
same,IC50,Ephrin type-B receptor 4,290 nM
same,bioavailability,[7],39%
CN(C)[C@@H]1CCCN(c2ccc(C(F)(F)F)cc2NC(=O)c2cc(C#Cc3cnc(N)nc3)ccc2F)C1,IC50,Angiopoietin-1 receptor [9],98 nM
same,IC50,Angiopoietin-1 receptor [2],44 nM

# Source: ChEMBL document CHEMBL1141381, “Alkynylpyrimidine amide derivatives as potent, selective, and orally active inhibitors of Tie-2 kinase” (J Med Chem, 2007)
